The numbers were not newly measured in patent US20240011040A1, “SALICYLIC ACID-INDUCIBLE GENE EXPRESSION COMPOSITIONS AND SYSTEMS FOR CELLS” (UNIVERSITY OF HOUSTON SYSTEM, priority 2020, published 2024), which cites them from elsewhere.

Usually Kd stands for the concentration at which binding is half-saturated.

Series [1] deals with T1, Arabidopsis thaliana (At) NPR4 (Arabidopsis thaliana, UniProt Q5ICL9).
T1 sequence (Q5ICL9 1-574): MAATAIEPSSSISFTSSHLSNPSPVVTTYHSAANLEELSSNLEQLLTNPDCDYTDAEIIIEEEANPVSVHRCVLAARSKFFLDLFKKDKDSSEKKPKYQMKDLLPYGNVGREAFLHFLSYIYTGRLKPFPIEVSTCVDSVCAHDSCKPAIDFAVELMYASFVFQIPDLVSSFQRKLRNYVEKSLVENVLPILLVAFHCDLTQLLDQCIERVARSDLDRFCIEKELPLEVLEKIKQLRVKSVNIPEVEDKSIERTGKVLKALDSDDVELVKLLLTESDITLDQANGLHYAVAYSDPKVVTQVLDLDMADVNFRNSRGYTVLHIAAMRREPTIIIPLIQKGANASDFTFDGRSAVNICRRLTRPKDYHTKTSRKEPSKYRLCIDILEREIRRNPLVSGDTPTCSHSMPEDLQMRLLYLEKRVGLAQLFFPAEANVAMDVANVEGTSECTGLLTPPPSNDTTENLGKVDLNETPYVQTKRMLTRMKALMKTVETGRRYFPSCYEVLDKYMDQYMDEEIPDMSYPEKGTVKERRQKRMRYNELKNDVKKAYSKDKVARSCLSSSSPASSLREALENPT
The following applies: AtNPR4, high-affinity sensor of SA.

For `O=C(O)c1ccccc1O` [SA, salicylic acid], the equilibrium dissociation constant (Kd) in series [1] is 24 nM.

“EPO: glycoprotein cytokine secreted mainly by the kidney; stimulates red blood cell production”: the half-life in blood result is listed as “around 5 h”.
